Laboratory results taken from article PMC8395335, “Serotonergic–Muscarinic Interaction within the Prefrontal Cortex as a Novel Target to Reverse Schizophrenia-Related Cognitive Symptoms” (International Journal of Molecular Sciences, 2021).
Where two headings read alike, the source gives them in different places. Blank lines part the entries; values can stand above or below the compound they belong to.

Legend:
in vivo = test: in vivo; design: species or system mice; details: mouse
Description: (§1) The experiment was performed using the methods described by Bridges et al. and in our previous studies.
(§2) The pharmacokinetic analysis was performed in the blood and prefrontal cortex. […] Plasma and FC samples were stored at −80 °C until analysis.
The drug was administered at a dose of 0.1 mg/kg; brain and tissue samples were collected 15, 30, 60, and 120 min after administration.
(§3) On the day of analysis, frozen whole mouse brain tissues were weighed and homogenized in 1:2 (w/v) volumes of ice-cold acetonitrile containing 0.1% FA and the internal standard mix. Samples were homogenized using a Metal Bead Lysing Matrix, vortexed for 1 min, shaken for 20 min at 4 °C on Thermomixer C, and centrifuged at 14,000× g rpm for 20 min at 4 °C. Finally, 50 µL of supernatant were diluted with 0.1% FA in water (1:1, v/v) and analyzed using HPLC/MS/MS.
(§4) The sample extraction of plasma (20 μL) was performed after spiking with the internal standard mix using the protein precipitation method and three volumes of ice-cold acetonitrile containing 0.1% formic acid. The extract was vortexed, incubated on ice for 20 min and centrifuged at 14,000× g rpm for 20 min at 4 °C. The supernatant was diluted with 0.1% FA in water (1:1, v/v) and analyzed by means of HPLC/MS/MS using a QTRAP 4500 (AB Sciex) mass spectrometer in positive ion mode in Multiple Reaction Monitoring (MRM screening) coupled with UHPLC (NEXERA XR, Shimadzu). Chromatographic separation was achieved on a Synergi 4 µm Fusion-RP 80 A 50 × 2 mm (Phenomenex) column at a flow rate of 0.2 mL/min. The gradient program was as follows: 20% B (0.3 min), 20–100% B (1.7 min), 100% B (3 min), 100–20% B (0.1 min), 20% B (2 min), solvent A (95:5:0.1% formic acid in water:methanol) and solvent B (methanol containing 0.1% formic acid). The column temperature was set to 40 °C. Analyst software was used to control the instrument and collect data. The ion transfer tube temperature was 300 °C. The spray voltage, collision energy, declastering potential, and gas parameters were optimized to achieve the maximal response using the test compounds. Selected reaction monitoring was carried out using the transition parameters. Calibration curves were constructed, and a linear response was obtained in the range of 0.25–500 ng/mL (VU357017, VU0152100, and F15599) and 1.25–2500 ng/mL (VU0238429) by spiking known amounts of each compound in blank brain homogenates and plasma. For VU0357017 and F15599 IS VU0152100 was used as internal standard. Sample concentration of internal standard was 100 ng/mL for IS VU0238429 and 50 ng/mL for IS VU0152100.

[1] = Pharmacokinetic analysis of drug-drug interactions (plasma, FC concentration, FC penetration); assay type: in vivo, mice; details: for Kp at 30 min: frontal cortex/plasma; for Decrease of FC penetration after acute concomitant administration with F15599: subeffective doses, compared to top dose alone
Description: as §1, §2
The investigated compounds were administered alone at the top dose (F15599—0.1 mg/kg, VU0357017—5 mg/kg, VU0152100—1 mg/kg, and VU0238429—5 mg/kg) and in combinations of muscarinic ligands at subeffective doses with F15599 at subeffective dose (F15599 + VU0357017 0.05 and 0.15 mg/kg, F15599 + VU0152100 0.05 and 0.05 mg/kg, F15599 + VU0238429 0.05 and 1 mg/kg). The FC and blood were collected on the eighth day, 30 min after administration. All mice were parallelly treated with MK-801 (0.3 mg/kg) for seven consecutive days.
as §3, §4
Brain penetration was calculated as FC/plasma ratio × 100%.

rats = system: rats; design: method as in PMID 19154445; details: cited from earlier work
PCP-induced deficits = system: PCP-induced deficits; design: method as in PMID 20488670; details: cited from earlier work
[2] = design: method as in PMID 31174329, PMID 19438238; details: earlier studies; cited from earlier work
[3] = Albino Swiss, mouse, in vivo, 30 min
[4] = Albino Swiss, mouse, intraperitoneal, acute, top doses alone (VU0357017 5, VU0152100 1, VU0238429 5, F15599 0.1 mg/kg), 30 min after administration, read-out: PFC Penetration (FC/plasma ratio x 100%)
[5] = Albino Swiss, mouse, intraperitoneal, chronic (7 days with MK-801), top doses alone (VU0357017 5, VU0152100 1, VU0238429 5, F15599 0.1 mg/kg), read-out: PFC Penetration (FC/plasma ratio x 100%)
[6] = Albino Swiss, mouse, plasma, intraperitoneal, acute, top doses alone (VU0357017 5, VU0152100 1, VU0238429 5, F15599 0.1 mg/kg), 30 min after administration, read-out: Plasma
[7] = Albino Swiss, mouse, plasma, intraperitoneal, chronic (7 days with MK-801), top doses alone (VU0357017 5, VU0152100 1, VU0238429 5, F15599 0.1 mg/kg), read-out: Plasma
[8] = Albino Swiss, mouse, prefrontal cortex (FC), intraperitoneal, acute, top doses alone (VU0357017 5, VU0152100 1, VU0238429 5, F15599 0.1 mg/kg), 30 min after administration, read-out: PFC
[9] = Albino Swiss, mouse, prefrontal cortex (FC), intraperitoneal, chronic (7 days with MK-801), top doses alone (VU0357017 5, VU0152100 1, VU0238429 5, F15599 0.1 mg/kg), read-out: PFC
[10] = acute, top doses alone (VU0357017 5, VU0152100 1, VU0238429 5, F15599 0.1 mg/kg), 30 min after administration
[11] = chronic (7 days with MK-801), top doses alone (VU0357017 5, VU0152100 1, VU0238429 5, F15599 0.1 mg/kg)
[12] = top doses alone, animals treated with MK-801

- Time after administration up to which drug was detected in the frontal cortex (in vivo; Albino Swiss): up to 2 h
- Tmax (in vivo; Albino Swiss, ip, 0.1 mg/kg): 15 min
- Tmax PFC (FC) (in vivo; Albino Swiss, ip, 0.1 mg/kg): 15 min
- half-life (in vivo; Albino Swiss, ip, 0.1 mg/kg): 120 min
- Cmax (in vivo; Albino Swiss, ip, 0.1 mg/kg, Cmax PFC (FC)): 48 ng/mL
- Cmax (in vivo; Albino Swiss, ip, 0.1 mg/kg, Cmax plasma): 27 ng/mL
- half-life (in vivo; ip, 0.1 mg/kg): 35 min
- PFC ([1]; Albino Swiss, mouse, in vivo, 0.1 mg/kg, 30 min): 21.57 ± 1.26 ng/mL
- concentration at 30 min ([1]; Albino Swiss, mouse, in vivo, 0.1 mg/kg, PFC): 18.3 ± 0.84 ng/mL
- Decrease of FC penetration after prolonged administration compared to acute [1, 3]: ca. 50%
- Decrease of FC penetration of F15599 when administered simultaneously [1, 3]: ~ 50%
- Effect of chronic administration of subeffective doses (combinations) on brain penetration ([1]; mouse, in vivo): increased
Structure (SMILES): Cc1cnc(CNCC2(F)CCN(C(=O)c3ccc(F)c(Cl)c3)CC2)nc1 [F15599]
- Doses inducing some adverse effects related to serotonergic syndrome (rats): greater than 0.16 mg/kg
- Effect on PCP-induced deficits during the reversal phase of the learning task and in the hole-board test (PCP-induced deficits): ameliorated

- Kp at 30 min ([1]; Albino Swiss, mouse, intraperitoneal, acute, combination F15599 0.05 mg/kg + VU0238429 1 mg/kg, read-out: PFC Penetration): 0.36
- Kp at 30 min [1, 4]: 0.53
- Kp at 30 min ([1]; Albino Swiss, mouse, intraperitoneal, chronic (7 days with MK-801), combination F15599 0.05 mg/kg + VU0238429 1 mg/kg, read-out: PFC Penetration): 0.15
- Kp at 30 min [1, 5]: 0.21
- concentration at 30 min ([1]; Albino Swiss, mouse, plasma, intraperitoneal, acute, combination F15599 0.05 mg/kg + VU0238429 1 mg/kg, read-out: Plasma): 120 ± 13.9 ng/mL
- concentration at 30 min [1, 6]: 486 ± 178 ng/mL
- concentration at 30 min ([1]; Albino Swiss, mouse, plasma, intraperitoneal, chronic (7 days with MK-801), combination F15599 0.05 mg/kg + VU0238429 1 mg/kg, read-out: Plasma): 35 ± 8.89 ng/mL
- concentration at 30 min [1, 7]: 844 ± 235 ng/mL
- concentration at 30 min ([1]; Albino Swiss, mouse, prefrontal cortex (FC), intraperitoneal, acute, combination F15599 0.05 mg/kg + VU0238429 1 mg/kg, read-out: PFC): 43.1 ± 1.81 ng/mL
- concentration at 30 min [1, 8]: 256 ± 32.1 ng/mL
- concentration at 30 min ([1]; Albino Swiss, mouse, prefrontal cortex (FC), intraperitoneal, chronic (7 days with MK-801), combination F15599 0.05 mg/kg + VU0238429 1 mg/kg, read-out: PFC): 5.13 ± 0.83 ng/mL
- concentration at 30 min [1, 9]: 179 ± 25 ng/mL
- Fold higher penetration to the FC than to whole brain ([1]; FC penetration versus earlier whole-brain data): more than 6 times
- PFC Penetration (FC/plasma ratio x 100%) [1, 10]: 53%
- PFC Penetration (FC/plasma ratio x 100%) [1, 11]: 21%
- Decrease of FC penetration after acute concomitant administration with F15599 [1]: ~ 40%
- Decrease of FC penetration after prolonged administration compared to acute [1, 12]: ca. 50%
Structure (SMILES): COc1ccc(CN2C(=O)C(=O)c3cc(OC(F)(F)F)ccc32)cc1 [VU0238429]
- Brain penetration (whole brain) [2]: ≤ 8%

- Kp at 30 min ([1]; Albino Swiss, mouse, intraperitoneal, acute, combination F15599 0.05 mg/kg + VU0357017 1 mg/kg, read-out: PFC Penetration): 0.31
- Kp at 30 min [1, 4]: 0.67
- Kp at 30 min ([1]; Albino Swiss, mouse, intraperitoneal, chronic (7 days with MK-801), combination F15599 0.05 mg/kg + VU0357017 0.15 mg/kg, read-out: PFC Penetration): 0.46
- Kp at 30 min [1, 5]: 0.36
- concentration at 30 min ([1]; Albino Swiss, mouse, plasma, intraperitoneal, acute, combination F15599 0.05 mg/kg + VU0357017 1 mg/kg, read-out: Plasma): 7.19 ± 0.24 ng/mL
- concentration at 30 min [1, 6]: 107 ± 7.65 ng/mL
- concentration at 30 min ([1]; Albino Swiss, mouse, plasma, intraperitoneal, chronic (7 days with MK-801), combination F15599 0.05 mg/kg + VU0357017 0.15 mg/kg, read-out: Plasma): 5.13 ± 0.38 ng/mL
- concentration at 30 min [1, 7]: 138 ± 14.9 ng/mL
- concentration at 30 min ([1]; Albino Swiss, mouse, prefrontal cortex (FC), intraperitoneal, acute, combination F15599 0.05 mg/kg + VU0357017 1 mg/kg, read-out: PFC): 2.25 ± 0.56 ng/mL
- concentration at 30 min [1, 8]: 71.7 ± 4.69 ng/mL
- concentration at 30 min ([1]; Albino Swiss, mouse, prefrontal cortex (FC), intraperitoneal, chronic (7 days with MK-801), combination F15599 0.05 mg/kg + VU0357017 0.15 mg/kg, read-out: PFC): 2.34 ± 0.255 ng/mL
- concentration at 30 min [1, 9]: 50.3 ± 4.62 ng/mL
- PFC Penetration (FC/plasma ratio x 100%) [1, 10]: 67%
- PFC Penetration (FC/plasma ratio x 100%) [1, 11]: 36%
- Decrease of FC penetration after acute concomitant administration with F15599 [1]: more than 50%
- Decrease of FC penetration after prolonged administration compared to acute [1, 12]: ca. 50%
Structure (SMILES): CCOC(=O)N1CCC(NCCNC(=O)c2ccccc2C)CC1 [VU0357017]
